Laboratory results as given in patent publication US7517911B2, “3,4,5-trimethoxy phenyl-based ester compound and preparation method thereof and whitening cosmetic composition containing the same” (Amorepacific Corporation, priority 2001, dated 2009).

What was measured:
Mel-Ab cells = test: Melanin-inhibiting effect in the melanocytes (Dooley method); type: cell-based, C57BL/6; settings: 10 ppm in culture medium, absorbance at 400 nm, compared with cells cultured without compound
human skin [1] = test: Whitening effect on the human skin (UVB-induced pigmentation, Chromameter); type: in vivo; settings: applied for 10 weeks after UVB, 12 male volunteers
Source text: The brachia of twelve (12) healthy volunteers (males) were attached with opaque tape having 1.5 cm diameter holes, and then irradiated with UVB (ultraviolet rays B) in 1.5˜2 times the intensity of the minimum amount to form erythema for each volunteer, to induce pigmentation. After irradiating the UVB, 1% diluted solutions of the ester compounds of Examples 1˜6 (solvent was 1,3-butyleneglycol:ethanol=7:3) were applied on the above treated brachia for ten (10) weeks (the above 1% diluted solution was not applied on one brachium), and the colors of the skins thereof were measured by Chromameter CR2002 (manufactured by Minolta; Japan) per every one week. The difference of “L”, that is, “Δ L”, the amount of the increase of brightness of skin compared with those not applied with diluted solution, was measured. For reference, measurements for the cases that 3% kojic acid and vehicle (solvent) were applied were performed.

rabbit skin = test: Test for skin irritation on animals (Draize P.I.I.); type: in vivo, rabbits; settings: 1% diluted solution, 0.5 ml; for P.I.I.: measured 24 and 72 hours after application
Description: The hairs on the backs of six (6) healthy male rabbits were removed. After making areas of 2.5 cm×2.5 cm on the left and right sides of the back of each rabbit, nothing was applied on the left area of the back as control area, and 1% diluted solutions of the ester compounds of Examples 1˜6 (solvent was 1,3-butyleneglycol:ethanol=7:3) were applied on the right area of the back of the rabbits with an amount of 0.5 ml, one compound for each rabbit respectively. Irritations such as erythema, rash or edema were measured 24 hours and 72 hours after the application. In addition, the degree of irritation was determined according to the conventional, “P.I.I.” (Primary Irritation Index) of Draize, and the results are shown in Table 6.

human skin [2] = test: Test for application to human skin (patch test, CTFA Guideline); type: in vivo; settings: for The number of volunteers having reaction, mark +: + = Intense erythema; for The number of volunteers having reaction, mark + / The number of volunteers having reaction, mark ++ / The number of volunteers having reaction, mark +++ / The number of volunteers having reaction, mark ± / The number of volunteers having reaction, mark −: 1% in patch base, n = 30; for The number of volunteers having reaction, mark ++: ++ = Intense erythema with edema; for The number of volunteers having reaction, mark +++: +++ = Intense erythema with edema &vesicle; for The number of volunteers having reaction, mark ±: ± = Mild erythema; for The number of volunteers having reaction, mark −: − = No visible reactions; for Average reaction (n = 30): {(grade × number of volunteers) × 100}/{maximum grade × total volunteers × number of test}, non-irritation standard value 1.0
Description: Each of the ester compounds of Examples 1˜6 were dissolved in a patch base shown in Table 8 to be 1% concentration respectively, to prepare test samples. 20 μl of each test sample was dropped in a Finn Chamber to make a patch, and the patch was attached to antebrachial skin (test region) and fixed with micro tape. The patch was attached for 24 hours, and after removing the patch, the test region was checked with marking pen, and then the region was observed after 1 and 24 hours.

guinea pig skin = test: Test for radiation toxicity (UVA); type: in vivo
Description: The hairs on the backs of ten (10) guinea pigs were removed. After fixing the pigs, the back was divided into six (6) areas each having 2.0 cm×2.0 cm area, three (3) areas on the left side and three (3) on the right side. Right side areas were control areas prevented from being radiated, and left side areas were radiation areas. 1% (w/v) diluted solutions of ester compounds of Examples 1˜6 were applied thereto with an equal amount of 50 μl respectively, while using vehicle (1,3-butyleneglycol:ethanol=7:3) as a negative control, and using 0.1% 8-MOP(methoxypsoralene) as a positive control. After 30 minutes later, left sides of the back of the pig was shielded from light by aluminum foil, and UVA(320˜380 nm) was radiated from 10 cm distant with an final energy of 15J/cm^2 by using ultraviolet radiation device (waldmann). The skin of the guinea pig was observed after 24, 48 and 72 hours later. The irritation was graded as shown in table 5 with 0˜4 grades according to the intensity of the erythema and edema, and the sum was calculated. In the evaluation, the maximum value of the measurement that performed after 24, 48 and 72 hours later was chosen, and then the Irritation Index of an animal skin was calculated according to mathematical formula 1, and finally, the Radiation Toxicity Index was calculated according to mathematical Formula 2. Irritation Index of an animal skin=(Σ maximum value of erythema index+Σ maximum value of edema index)/number of animals [Mathematical Formula 1] Radiation Toxicity Index=(Irritation Index of an animal skin in an area of UV radiation)−(Irritation Index of an animal skin in an area UV non-radiation) [Mathematical Formula 2]

[3] = 1% diluted solution (1,3-butyleneglycol:ethanol=7:3)
[4] = 1% (w/v) solution 50 μl, UVA 15J/cm^2, observed 24, 48 and 72 hours
[5] = 1% (w/v) solution, UVA 15J/cm^2

| Compound | Melanin generation ratio (%) (Mel-Ab cells) | Increase of brightness of skin (Δ L) (human skin [1]; [3]) | Determination (skin irritation) (rabbit skin) | P.I.I. (rabbit skin) | The number of volunteers having reaction, mark + (human skin [2]; 24 hours later) | The number of volunteers having reaction, mark ++ (human skin [2]; 24 hours later) | The number of volunteers having reaction, mark +++ (human skin [2]; 24 hours later) | The number of volunteers having reaction, mark ± (human skin [2]; 24 hours later) | The number of volunteers having reaction, mark − (human skin [2]; 24 hours later) | The number of volunteers having reaction, mark + (human skin [2]; 48 hours later) | The number of volunteers having reaction, mark ++ (human skin [2]; 48 hours later) | The number of volunteers having reaction, mark +++ (human skin [2]; 48 hours later) | The number of volunteers having reaction, mark ± (human skin [2]; 48 hours later) | The number of volunteers having reaction, mark − (human skin [2]; 48 hours later) | Average reaction (n = 30) (human skin [2]) | Determination (radiation toxicity) (guinea pig skin; in vivo) | Radiation Toxicity Index (guinea pig skin; in vivo) | Radiation Toxicity Index (guinea pig skin; [4]) | Determination (radiation toxicity) (guinea pig skin; [5]) | Increase of brightness of skin (Δ L) (human skin [1]; 3% kojic acid) |
| --- | --- | --- | --- | --- | --- | --- | --- | --- | --- | --- | --- | --- | --- | --- | --- | --- | --- | --- | --- | --- |
| COc1cc(C=CC(=O)O)cc(OC)c1OC [3,4,5-trimethoxy cinnamic acid, reference compound] | 96.3 |  |  |  |  |  |  |  |  |  |  |  |  |  |  |  |  |  |  |  |
| 5-methyl-2-(methylethyl)phenyl-3-(3,4,5-trimethoxyphenyl)propanoate [Example 5] | 50.0 | 1.40 ± 0.12 | No irritation | 0.375 | 0 | 0 | 0 | 0 | 30 | 0 | 0 | 0 | 0 | 30 | 0.00 | Radiation Non-Toxic | 0 |  |  |  |
| COc1cc(CCC(=O)Oc2cc(C(C)C)ccc2C)cc(OC)c1OC [Example 6, 2-methyl-5-(methylethyl)phenyl-3-(3,4,5-trimethoxyphenyl)propanoate] | 48.1 | 1.49 ± 0.11 | No irritation | 0.315 | 0 | 0 | 0 | 0 | 30 | 0 | 0 | 0 | 0 | 30 | 0.00 |  |  | 0 | Radiation Non-Toxic |  |
| COc1cc(/C=C/C(=O)Oc2cc(C)ccc2C(C)C)cc(OC)c1OC [Example 3, 5-methyl-2-(methylethyl)phenyl(2E)-3-(3,4,5-trimethoxyphenyl)-2-propanoate] | 45.6 | 1.38 ± 0.11 | No irritation | 0.375 | 0 | 0 | 0 | 0 | 30 | 0 | 0 | 0 | 0 | 30 | 0.00 |  |  | 0 | Radiation Non-Toxic |  |
| COc1cc(CC(=O)Oc2cc(C)ccc2C(C)C)cc(OC)c1OC [Example 1] | 47.8 | 1.71 ± 0.25 | No irritation | 0.375 | 0 | 0 | 0 | 2 | 28 | 0 | 0 | 0 | 0 | 30 | 0.83 |  |  | 0 | Radiation Non-Toxic |  |
| COc1cc(CC(=O)O)cc(OC)c1OC [3,4,5-trimethoxy phenylacetic acid, reference compound] | 95.8 |  |  |  |  |  |  |  |  |  |  |  |  |  |  |  |  |  |  |  |
| Cc1ccc(C(C)C)cc1O [Carvacrol, carvacrol, reference compound] | 91.5 |  |  |  |  |  |  |  |  |  |  |  |  |  |  |  |  |  |  |  |
| 2-methyl-5-(methylethylphenyl)-2-(3,4,5-trimethoxyphenyl)acetate [Example 2] | 51.2 | 1.51 ± 0.13 | No irritation | 0.345 | 0 | 0 | 0 | 0 | 30 | 0 | 0 | 0 | 1 | 29 | 0.42 | Radiation Non-Toxic | 0 |  |  |  |
| O=c1cc(CO)occ1O [Kojic acid, kojic acid, reference compound] | 88.0 |  |  |  |  |  |  |  |  |  |  |  |  |  |  |  |  |  |  | 0.99 ± 0.11 |
| Cc1ccc(C(C)C)c(O)c1 [Thymol, thymol, reference compound] | 94.5 |  |  |  |  |  |  |  |  |  |  |  |  |  |  |  |  |  |  |  |
| COc1cc(/C=C/C(=O)Oc2cc(C(C)C)ccc2C)cc(OC)c1OC [Example 4, 2-methyl-5-(methylethyl)phenyl(2E)-3-(3,4,5-trimethoxyphenyl)-2-propanoate] | 58.9 | 1.22 ± 0.18 | No irritation | 0.350 | 0 | 0 | 0 | 1 | 29 | 0 | 0 | 0 | 0 | 30 | 0.42 |  |  | 0 | Radiation Non-Toxic |  |
| COc1cc(CCC(=O)O)cc(OC)c1OC [3,4,5-trimethoxy hydrocinnamic acid, reference compound] | 92.5 |  |  |  |  |  |  |  |  |  |  |  |  |  |  |  |  |  |  |  |
